Experiments:
[1] = tested on: subcutaneous or orthotopic non-small cell lung cancer lesions; settings: athymic nude mice with subcutaneous or orthotopic non-small cell lung cancer lesions; cited from earlier work
[2] = tested on: intracellular iron in HT29 cells; experiment: Intracellular iron measurement (QuantiChrom kit); assay type: cell-based, human; settings: HT29, 10 μM, 4, 8 and 16 h
Protocol: HT29 cells were plated in 100 mm tissue culture plates for 48 h and then the cells were treated as indicated in the text. The cells were washed twice with PBS and then 100 μl triton lysis buffer (without EDTA) was added. The intracellular iron concentrations were determined using the QuantiChrom iron assay kit (BioAssay Systems; #ab83366) following the manufacturer's instructions. Briefly, iron standards of different concentrations were prepared by diluting the iron standard provided with the kit with distilled water. The diluted standards (50 μL) and sample cell lysates (50 μL) were transferred into a clear flat bottom 96-well-plate. Working reagent was prepared by mixing 20 volumes of reagent A, 1 volume reagent B and 1 volume reagent C provided with the kit. The working reagent (200 μL) was then added to the standard and sample wells. After mixing, the plate was incubated 40 min at room temperature and then the absorbance was measured at 590 nm. The iron concentration in each sample was calculated as described in the kit protocol.

[3] = tested on: P-PERK, P-eIF2α, CHOP10, PARP, caspase-3, ferritin in HT29 cells; experiment: Western blot of ER stress and apoptosis proteins in HT29; assay type: cell-based, human
Protocol: (§1) Western blot analysis was conducted as described previously ([35]). Briefly, the cells were cultured in 100 mm dishes for 48 h before treatment. The cells were then treated as described in the figure legends. For vehicle-treated samples, DMSO was added to serum-free culture medium at a maximum concentration of 0.1% (v/v). After experimentation, the cells were washed twice with phosphate buffer saline (PBS) and then 100 μl of Triton lysis buffer [25 mM HEPES, 100 mM NaCl, 1 mM EDTA, 10% (v/v) glycerol, 1% (v/v) Triton X-100], containing protease and […] inhibitors, was added to the cells. Protein concentrations were determined by using BCA reagents (Thermo Fisher Scientific Inc., IL). Equal concentrations of each sample were loaded onto SDS–PAGE gels and protein bands transferred to nitrocellulose membranes using semi-dry transfer cells (TRANS-BLOTSD; Bio-Rad Laboratories, Hercules, CA). The membranes were incubated for 2 h at room temperature in Odyssey blocking buffer (LI-COR Biosciences, Lincoln, NE). Membranes were then incubated overnight at 4C with primary antibody followed by 1 h of incubation at room temperature with secondary antibody. All primary antibodies were used at a dilution of 1:1,000 except anti-GAPDH and anti-CHOP10 antibodies which were used at 1:10,000 and 1:500 dilutions, respectively. All secondary antibodies were used at a dilution of 1:15,000. Protein bands were visualized using Odyssey® CLx digital fluorescence imaging system (LI-COR, Lincoln, Nebraska). Band intensities were quantified by using ImageJ software ([36]).

[4] = tested on: ferritin H mRNA in HT29 cells; experiment: Ferritin mRNA qRT-PCR; assay type: cell-based, human; settings: HT29, 10 μM, 4, 8 and 16 h
Protocol: Total RNA was extracted from HT29 cells by utilizing TRI reagent (Sigma Aldrich, St. Louis, MO, USA) and then it was purified with the Direct-zol RNA MiniPrep Kit (Zymo Research, Irvine, CA, USA). cDNA was synthesized from purified RNA by using the iScript cDNA Synthesis Kit (Bio-Rad laboratories, Hercules, CA, USA). qRT-PCR was performed by using the iTaq Universal SYBR Green Supermix (Bio-Rad laboratories, Hercules, CA, USA) with the BioRad CFX96 thermocycler (Bio-Rad laboratories, Hercules, CA, USA). The specific primer pair sequences were 5′-[…]-3′ and 5′-[…]-3′ for β-actin; and 5′-[…]-3′ and 5′-[…]-3′ for ferritin H (heavy-chain). Cycle threshold values were normalized to the internal beta-actin control. The ratio of fold change was calculated using the Pfaffl method ([37]).

[5] = tested on: PERK, eIF2a, CHOP10, PARP, caspase 3 in FHC cells; experiment: Western blot of ER stress and apoptosis proteins in FHC; assay type: cell-based, human; settings: 10 μM, 1-16 h
Protocol: as §1, with “All primary antibodies were used at a dilution of 1:1,000 except anti-GAPDH and anti-CHOP10 antibodies which were used at 1:10,000 and 1:500 dilutions, respectively. All secondary antibodies were used at a dilution of 1:15,000.” left out

[6] = tested on: HCT116 cells; experiment: TUNEL assay in HCT116; assay type: cell-based, human; settings: 5 or 10 μM, 16 h
Protocol: HT29, HCT116, and FHC cells were cultured in chamber slides and treated with 5 μM NSC735847, 10 μM NSC735847, or vehicle (0.1% DMSO). The cells were then washed with PBS and fixed in 4% paraformaldehyde before detection of double stranded DNA breaks that are characteristic of apoptosis. Terminal deoxynucleotidyl transferase dUTP nick end labeling (TUNEL) assays were performed as described by the manufacturer (in situ Cell Death Detection Kit; Roche; Indianapolis, IN). Briefly, fixed cells were incubated in permeabilization solution (0.1% Triton X-100 in 0.1% sodium citrate) for 2 min on ice. The slides were rinsed twice with PBS, 50 μL TUNEL reaction mixture was added, and then the samples were incubated for 1 h at 37°C in the dark. The slides were overlayed with antifade mounting medium containing DAPI and then visualized using a Zeiss LSM 700 confocal microscope system (Carl Zeiss Microscopy, LLC, White Plains, NY).

CC1CCC2C(C)C(OCC(COC3OC4OC5(C)CCC6C(C)CCC(C3C)C46OO5)=NO)OC3OC4(C)CCC1C32OO4 (stereo not shown) [compound (3)]
body weight of tumor-bearing mice [1]: did not cause significant changes in the body weight | cellular free iron [2]: time-dependent increase in cellular free iron | CHOP10 expression ([3]; HT29, 10 μM, 6 and 8 h): marked increase | cleavage of PARP ([3]; HT29, 10 μM, 8 and 16 h): stimulated the cleavage | cleavage of caspase-3 ([3]; HT29, 10 μM, 8 and 16 h): stimulated the cleavage | phosphorylation of PERK, increase compared to vehicle-treated cells ([3]; HT-29, 10 μM, 1 and 2 h): more than 7 fold | phosphorylation of eIF2α, increase compared to vehicle-treated cells ([3]; HT-29, 10 μM, 1 and 2 h): more than 7 fold | ferritin mRNA expression [4]: upregulated the expression of ferritin mRNA | activation of PERK, eIF2a, CHOP10, PARP, caspase 3 in FHC [5]: did not increase the activation | TUNEL positive cells in HCT-116 [6]: increased the quantity of TUNEL positive cells
